# Experimental data from ChEMBL document CHEMBL1201862, “PubChem BioAssay data set” (2004).
# Active and inactive are the calls of the source.
# Assays:
# [1] = viability of uninfected HEp-2 cells – cell-based, HTS, cytotoxicity control for RSV inhibitor project, dose response (AID 2410); format: functional; conditions: human respiratory syncytial virus
# Beta-galactosidase = Beta-galactosidase (Escherichia coli, UniProt Q8VNN2); experiment: PubChem AID 485352; format: functional
# [2] = biological target: T1, Type-1 angiotensin II receptor (Homo sapiens, UniProt P30556); experiment: antagonism of angiotensin II type 1 receptor – cell-based, uHTS hits, selectivity assay for APJ receptor antagonist project, dose response (AID 463214); format: functional;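 note: antagonist potency against angiotensin II stimulated AT1 response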
# T1 sequence (P30556 whole entry): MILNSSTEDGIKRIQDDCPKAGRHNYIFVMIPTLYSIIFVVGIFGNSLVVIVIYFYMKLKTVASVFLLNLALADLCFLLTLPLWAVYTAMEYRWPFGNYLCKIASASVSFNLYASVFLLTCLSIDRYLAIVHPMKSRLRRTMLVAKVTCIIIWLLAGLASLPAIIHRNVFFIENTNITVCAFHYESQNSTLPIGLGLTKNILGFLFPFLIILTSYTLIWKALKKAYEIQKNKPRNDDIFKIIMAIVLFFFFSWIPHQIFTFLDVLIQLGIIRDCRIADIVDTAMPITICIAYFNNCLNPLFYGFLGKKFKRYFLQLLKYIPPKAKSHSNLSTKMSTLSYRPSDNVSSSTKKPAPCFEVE
# Cytochrome P450 3A4 = Cytochrome P450 3A4 (Homo sapiens, UniProt P08684); conditions: Potency;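 note: confirmatory qHTS run detecting inhibitors and substrates of CYP3A4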
# Cytochrome P450 3A4, sequence (P08684 whole entry): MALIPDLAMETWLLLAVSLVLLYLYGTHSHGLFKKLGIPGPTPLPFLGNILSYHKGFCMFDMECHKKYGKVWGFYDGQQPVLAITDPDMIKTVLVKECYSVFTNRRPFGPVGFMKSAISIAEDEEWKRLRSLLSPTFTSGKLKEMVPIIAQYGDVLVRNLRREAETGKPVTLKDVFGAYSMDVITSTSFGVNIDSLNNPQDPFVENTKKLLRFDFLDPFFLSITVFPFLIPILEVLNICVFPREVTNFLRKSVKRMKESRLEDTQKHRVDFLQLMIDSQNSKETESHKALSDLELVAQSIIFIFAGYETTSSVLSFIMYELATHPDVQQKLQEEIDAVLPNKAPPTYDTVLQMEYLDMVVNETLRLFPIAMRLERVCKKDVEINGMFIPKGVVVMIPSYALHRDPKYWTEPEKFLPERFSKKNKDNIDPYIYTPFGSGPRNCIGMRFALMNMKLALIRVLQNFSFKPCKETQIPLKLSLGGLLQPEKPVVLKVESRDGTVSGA
# [3] = biological target: Voltage-dependent T-type calcium channel subunit alpha-1H (Homo sapiens, UniProt O95180); format: functional;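 note: channel activity triggered by adding a high calcium stimulation buffer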
# Voltage-dependent T-type calcium channel subunit alpha-1H, sequence (O95180 whole entry): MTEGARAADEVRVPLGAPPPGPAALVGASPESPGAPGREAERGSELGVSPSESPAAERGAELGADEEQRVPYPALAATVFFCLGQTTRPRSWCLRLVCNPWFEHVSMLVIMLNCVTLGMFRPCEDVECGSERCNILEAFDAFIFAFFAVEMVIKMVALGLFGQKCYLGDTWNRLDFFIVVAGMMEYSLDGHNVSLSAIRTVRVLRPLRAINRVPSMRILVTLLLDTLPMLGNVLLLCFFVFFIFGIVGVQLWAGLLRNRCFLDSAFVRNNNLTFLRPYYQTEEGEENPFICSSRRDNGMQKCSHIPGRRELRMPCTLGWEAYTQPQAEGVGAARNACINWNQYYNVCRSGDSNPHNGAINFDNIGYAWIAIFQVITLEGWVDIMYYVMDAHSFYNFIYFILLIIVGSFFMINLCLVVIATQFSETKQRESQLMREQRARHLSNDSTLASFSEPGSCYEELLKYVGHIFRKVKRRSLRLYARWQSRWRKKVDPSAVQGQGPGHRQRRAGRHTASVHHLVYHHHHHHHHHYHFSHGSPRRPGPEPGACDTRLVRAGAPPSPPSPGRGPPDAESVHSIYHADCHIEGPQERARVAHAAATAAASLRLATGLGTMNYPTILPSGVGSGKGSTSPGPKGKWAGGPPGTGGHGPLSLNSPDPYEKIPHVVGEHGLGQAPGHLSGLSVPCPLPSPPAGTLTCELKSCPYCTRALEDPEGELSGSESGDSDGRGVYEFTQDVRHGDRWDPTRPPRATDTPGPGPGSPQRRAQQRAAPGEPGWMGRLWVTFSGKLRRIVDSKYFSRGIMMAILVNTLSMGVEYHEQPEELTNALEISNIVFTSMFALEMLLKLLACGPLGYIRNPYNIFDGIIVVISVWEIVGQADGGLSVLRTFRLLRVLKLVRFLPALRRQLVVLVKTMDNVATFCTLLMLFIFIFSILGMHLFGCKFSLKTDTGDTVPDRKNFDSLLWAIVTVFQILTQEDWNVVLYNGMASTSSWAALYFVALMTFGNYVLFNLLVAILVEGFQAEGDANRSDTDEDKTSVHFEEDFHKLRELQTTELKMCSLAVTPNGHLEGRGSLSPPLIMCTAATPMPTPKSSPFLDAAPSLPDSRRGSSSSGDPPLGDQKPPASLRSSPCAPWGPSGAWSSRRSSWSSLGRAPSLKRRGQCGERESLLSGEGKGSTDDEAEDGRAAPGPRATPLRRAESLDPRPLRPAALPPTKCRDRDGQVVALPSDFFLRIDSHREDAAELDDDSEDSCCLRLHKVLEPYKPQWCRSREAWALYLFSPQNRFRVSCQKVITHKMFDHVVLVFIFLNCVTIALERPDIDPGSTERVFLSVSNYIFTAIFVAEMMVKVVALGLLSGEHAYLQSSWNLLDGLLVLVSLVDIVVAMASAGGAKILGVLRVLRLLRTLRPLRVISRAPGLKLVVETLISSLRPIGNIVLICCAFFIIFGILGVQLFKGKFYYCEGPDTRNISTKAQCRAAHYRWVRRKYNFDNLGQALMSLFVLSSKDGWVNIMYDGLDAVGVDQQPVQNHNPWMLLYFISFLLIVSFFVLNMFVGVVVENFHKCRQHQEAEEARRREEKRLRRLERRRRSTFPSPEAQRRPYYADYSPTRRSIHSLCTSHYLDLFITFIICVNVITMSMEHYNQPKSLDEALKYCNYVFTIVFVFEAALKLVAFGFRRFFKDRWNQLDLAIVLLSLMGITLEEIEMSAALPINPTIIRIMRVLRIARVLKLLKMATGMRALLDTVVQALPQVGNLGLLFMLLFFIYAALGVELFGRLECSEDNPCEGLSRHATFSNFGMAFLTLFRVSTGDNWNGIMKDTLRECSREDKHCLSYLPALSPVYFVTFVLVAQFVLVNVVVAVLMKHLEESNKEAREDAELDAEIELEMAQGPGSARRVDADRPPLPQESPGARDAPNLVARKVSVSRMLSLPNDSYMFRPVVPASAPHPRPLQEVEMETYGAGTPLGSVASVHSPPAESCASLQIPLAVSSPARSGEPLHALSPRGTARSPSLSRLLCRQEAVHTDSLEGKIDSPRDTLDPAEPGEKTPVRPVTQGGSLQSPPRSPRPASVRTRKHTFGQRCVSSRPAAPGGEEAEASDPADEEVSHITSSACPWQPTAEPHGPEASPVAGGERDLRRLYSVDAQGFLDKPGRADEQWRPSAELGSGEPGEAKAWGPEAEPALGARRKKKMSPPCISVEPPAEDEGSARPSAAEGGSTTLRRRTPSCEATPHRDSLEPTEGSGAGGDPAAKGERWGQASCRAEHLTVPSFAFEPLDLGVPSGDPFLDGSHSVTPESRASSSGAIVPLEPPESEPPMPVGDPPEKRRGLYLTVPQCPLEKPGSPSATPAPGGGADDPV
# [4] = biological target: T2, Endoribonuclease toxin MazF (Escherichia coli K-12, UniProt P0AE70); experiment: activation of MazEF endoribonuclease cleavage – biochemical, fluorescence, single-stranded RNA substrate, uHTS hits, dose response (AID 588481); format: functional
# T2 sequence (P0AE70 whole entry): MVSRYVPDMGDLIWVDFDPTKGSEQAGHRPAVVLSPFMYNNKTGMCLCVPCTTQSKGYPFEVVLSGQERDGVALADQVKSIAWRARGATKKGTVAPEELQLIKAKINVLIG
# [5] = biological target: T2, Endoribonuclease toxin MazF; experiment: substrate-only fluorescence increase artefacts – biochemical, single-stranded RNase substrate, counter-screen for MazEF activator project, dose response (AID 588502); format: functional
# [6] = A cytotoxicity screen of small molecule inhibitors of the PhoP region in Salmonella typhi identified in the primary screen. [Related pubchem assays: 1850, 1864, 1985 ]; format: functional
# [7] = biological target: FAD-linked sulfhydryl oxidase ALR (Homo sapiens, UniProt P55789); experiment: ALR-catalysed DTT oxidation blockers – biochemical, H2O2 detection, luminescence, cherry-pick, dose response (AID 493248)
# FAD-linked sulfhydryl oxidase ALR, sequence (P55789 whole entry): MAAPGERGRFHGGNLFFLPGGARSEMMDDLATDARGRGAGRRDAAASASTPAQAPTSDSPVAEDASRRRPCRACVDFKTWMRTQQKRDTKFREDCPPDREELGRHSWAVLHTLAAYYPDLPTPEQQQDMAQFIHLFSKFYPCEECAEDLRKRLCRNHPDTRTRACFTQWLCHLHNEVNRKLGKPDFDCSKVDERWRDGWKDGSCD
# [8] = NIH-3T3 fibroblast cytotoxicity, dose response, cytotoxicity control, cell-based, fluorescence, Alamar Blue, secondary assay (AID 2327); format: functional;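 note: NIH-3T3 mouse fibroblasts cultured with fluconazole at 8 µg/mL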
# [9] = fluconazole-exposed Candida albicans growth modulators – fluorescence, retest, confirmation (AID 2467); format: functional, cell-based
# [10] = microbe, parasite or virus in culture; format: functional; conditions: Mycobacterium tuberculosis
# [11] = biological target: T3, RNA-binding protein pos-1 (Caenorhabditis elegans, UniProt G5EF15); experiment: disruptors of C. elegans POS-1 RNA interaction – biochemical, fluorescence polarization, dose response (AID 1964);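 note: purified POS-1 fused to maltose binding protein made in E. coli; potency of compounds blocking POS-1 binding to fluorescent RNA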
# T3 sequence (G5EF15 whole entry): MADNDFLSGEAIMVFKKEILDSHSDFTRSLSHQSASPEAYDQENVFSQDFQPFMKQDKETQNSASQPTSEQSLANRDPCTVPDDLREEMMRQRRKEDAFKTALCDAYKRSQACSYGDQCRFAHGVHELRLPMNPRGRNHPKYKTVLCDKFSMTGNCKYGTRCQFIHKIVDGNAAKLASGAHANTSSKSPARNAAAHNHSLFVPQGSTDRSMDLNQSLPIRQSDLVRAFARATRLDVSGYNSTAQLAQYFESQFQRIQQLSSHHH
# [12] = biological target: T4, Zinc finger protein mex-5 (Caenorhabditis elegans, UniProt Q9XUB2); experiment: potency of MEX-5 RNA-binding blockers – biochemical, C. elegans, fluorescence polarization, dose response (AID 1960)
# T4 sequence (Q9XUB2 whole entry): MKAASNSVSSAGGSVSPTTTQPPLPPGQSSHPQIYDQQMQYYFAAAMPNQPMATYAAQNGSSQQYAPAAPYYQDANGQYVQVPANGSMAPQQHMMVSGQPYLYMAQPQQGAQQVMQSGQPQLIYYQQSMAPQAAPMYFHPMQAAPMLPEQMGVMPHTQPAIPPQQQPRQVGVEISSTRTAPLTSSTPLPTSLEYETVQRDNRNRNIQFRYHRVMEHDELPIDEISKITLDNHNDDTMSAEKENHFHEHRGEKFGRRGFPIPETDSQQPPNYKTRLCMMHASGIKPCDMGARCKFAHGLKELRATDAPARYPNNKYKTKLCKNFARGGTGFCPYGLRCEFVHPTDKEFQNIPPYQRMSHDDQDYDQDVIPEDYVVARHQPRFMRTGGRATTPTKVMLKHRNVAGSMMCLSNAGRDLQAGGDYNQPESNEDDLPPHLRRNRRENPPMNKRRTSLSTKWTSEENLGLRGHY
# Beta-galactosidase, sequence (Q8VNN2 whole entry): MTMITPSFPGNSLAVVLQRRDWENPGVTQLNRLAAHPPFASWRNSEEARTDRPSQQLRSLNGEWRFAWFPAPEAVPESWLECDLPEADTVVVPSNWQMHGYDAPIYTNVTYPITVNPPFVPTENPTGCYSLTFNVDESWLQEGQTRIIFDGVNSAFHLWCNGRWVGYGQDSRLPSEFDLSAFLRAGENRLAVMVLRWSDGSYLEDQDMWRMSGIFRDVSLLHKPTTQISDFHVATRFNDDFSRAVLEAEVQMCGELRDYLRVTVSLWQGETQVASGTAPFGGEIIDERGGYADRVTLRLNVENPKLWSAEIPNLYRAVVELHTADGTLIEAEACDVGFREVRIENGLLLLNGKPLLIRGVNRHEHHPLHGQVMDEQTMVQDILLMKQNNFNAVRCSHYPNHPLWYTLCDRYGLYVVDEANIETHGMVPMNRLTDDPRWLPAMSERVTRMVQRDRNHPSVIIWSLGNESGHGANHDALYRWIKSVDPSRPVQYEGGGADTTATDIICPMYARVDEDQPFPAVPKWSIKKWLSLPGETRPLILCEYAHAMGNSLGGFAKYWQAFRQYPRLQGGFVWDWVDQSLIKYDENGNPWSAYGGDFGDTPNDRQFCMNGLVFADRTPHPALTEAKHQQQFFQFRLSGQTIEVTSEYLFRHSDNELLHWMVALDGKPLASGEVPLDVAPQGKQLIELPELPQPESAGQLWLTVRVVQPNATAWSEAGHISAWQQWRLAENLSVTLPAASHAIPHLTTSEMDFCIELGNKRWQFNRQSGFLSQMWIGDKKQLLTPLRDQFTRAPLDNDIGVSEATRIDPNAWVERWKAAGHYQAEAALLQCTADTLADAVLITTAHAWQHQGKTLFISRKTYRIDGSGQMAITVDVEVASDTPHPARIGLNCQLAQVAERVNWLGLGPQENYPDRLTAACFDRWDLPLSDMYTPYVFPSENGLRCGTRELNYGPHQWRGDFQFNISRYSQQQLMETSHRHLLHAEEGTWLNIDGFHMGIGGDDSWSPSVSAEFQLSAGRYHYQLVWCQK
compound,measurement,setting,value
CC(=O)c1ccc(N2CCN(Cc3nc4ccccc4[nH]3)CC2)cc1,CC50,[1],> 50 µM (active)
same,IC50,cells,10.8 µM (active)
Cc1cccc2c1N(CCCOc1ccccc1)C(=O)C2=O,EC50,Beta-galactosidase,> 40 µM (inactive)
same,IC50,[2],> 40 µM (not active)
CC(Nc1cccc2ccccc12)C(=O)N/N=C/c1ccc([N+](=O)[O-])cc1 (centres undefined),CC50,[1],21.8 µM (active)
same,IC50,cells,22.1 µM (active)
O=C(O)c1cc(O)c2c(c1)C(=O)c1cc(O)cc(O)c1C2=O [EMODIC ACID],AC50,Cytochrome P450 3A4,15.8 µM (inconclusive)
CC(=O)OCC1OC(C#CCC2CCCCC2)C=CC1OC(C)=O (centres undefined),AC50,Cytochrome P450 3A4,3.16 µM (inconclusive)
CCn1c(CNc2ccccc2Cl)nnc1SCC(=O)OC1CCCCC1,EC50,[3],3.84 µM (active)
C#CCN1C(=O)S/C(=C\c2ccc(N3CCOCC3)cc2C)C1=O,EC50,[4],> 99 µM (inactive)
same,EC50,[5],> 99 µM (inactive)
Cc1cc(NS(=O)(=O)c2ccc(NC(=O)Nc3cccc(Cl)c3)cc2)no1,EC50,[6],> 50 µM (active)
same,AC50,[7],0.098 µM (active)
Cc1ccc(C(=O)N/C(=C/c2ccc(-c3cc(C(F)(F)F)ccc3Cl)o2)C(=O)NCc2cccnc2)cc1,EC50,[8],21.4 µM (active)
same,EC50,[9],> 38 µM (not active)
same,CC50,[10],> 40 µM (active)
COc1ccc(C)cc1NC(=O)C1CCN(S(=O)(=O)c2c(C)noc2C)CC1,EC50,[6],> 50 µM (active)
COc1ccc(OC)c(NC(=O)c2c3c(nc4ccccc24)CCC3)c1,EC50,[8],> 150 µM (inactive)
same,EC50,[9],2.17 µM (active)
Cc1cc(NC(=O)/C(C#N)=C/c2ccc(-c3ccc(SC(F)F)cc3)o2)n(-c2ccccc2)n1,EC50,[11],22.9 µM (active)
same,EC50,[12],25.8 µM (active)
same,EC50,[4],> 99 µM (inactive)
same,EC50,[5],48.9 µM (inactive)
O=C(/C=C/c1ccc(Cl)cc1)c1cccs1,AC50,Cytochrome P450 3A4,25.1 µM (inconclusive)
Cc1ccc(S(=O)(=O)NC2CCCCC2)cc1,AC50,Cytochrome P450 3A4,20 µM (inconclusive)
CC1=NN(c2ccc(C)cc2)C(=O)/C1=C/c1ccc(-c2cc([N+](=O)[O-])ccc2O)o1,EC50,Beta-galactosidase,> 40 µM (inactive)
same,IC50,[2],> 40 µM (not active)
N#CC1CC(c2ccccc2)=NN1c1ccccc1[N+](=O)[O-] (centres undefined),EC50,[8],> 160 µM (inactive)
same,EC50,[9],> 38 µM (not active)
COc1ccccc1C(=O)Nc1ccc(NC(=O)c2ccco2)c(C)c1,EC50,[3],6.29 µM (active)
Cc1nn(CCC(=O)NN=C(S)Nc2ccc(F)cc2)c(C)c1Br,EC50,Beta-galactosidase,> 40 µM (inactive)
same,IC50,[2],> 40 µM (not active)
Cc1ccc2oc(C(=O)Nc3ccc(S(=O)(=O)Nc4onc(C)c4C)cc3)c(C)c2c1,CC50,[1],25.9 µM (active)
same,IC50,cells,23.7 µM (active)
